From patent US8158811B2, “Unsaturated fatty hydroxy acid derivatives and the dermocosmetologic use thereof” (Pierre Fabre Dermo-Cosmetique, priority 2005, dated 2012)

Legend:
[1] = test system: intracellular AOSs, fibroblast line L929; test: in vitro assay of intracellular AOSs (H2DCF-DA probe) after H2O2/iron oxidative stress; assay type: cell-based, murin; details: pre-incubation 3 h, L929
Excerpt: We set up an in vitro study model of oxidative stress induced by H2O2/iron as H2O2 generates huge amounts of intracellular AOSs as a result of a chain reaction triggered by oxidation of membrane lipids.
This technique is based on the use of a fluorescent probe, 6-carboxy-2′,7′-dichlorodihydro fluorescein diacetate, di (acetoxymethyl ester) (H2DCF-DA) which once it penetrates into the cell is deacetylated by intracellular esterases and thus forms H2DCF. This product is oxidized by intracellular AOSs into a highly fluorescent compound: 2′,7′-dichlorofluorescein (DCF) (Suematsu M et al., 1996, Free Radicals Practical Approach, Punchard ed. P 83-99).
The materials and methods used for in vitro assay of intracellular AOSs are given below. • a) Cell tool • Cutaneous murin fibroblast cell line L929. • b) Materials • 96 well flat based microplate. • Cytofluor II cytofluorameter: Ref. PERCEPTIVE BIOSYSTEMS. • c) Reagents • Cell culture reagents: • Dulbecco's Modified Eagle Medium as the culture medium (DMEM) • Foetal calf serum • Phosphate buffer PBS pH 7.4 • Trypsin EDTA (1X) Fluorescent probe • 6-carboxy-2′,7′-dichlorodihydrofluorescein diacetate, di(acetoxymethyl ester) (PM.675,43) Cell stimulation products • Hydrogen peroxide (H2O2) 3% Ref. GIFRER (Gifrer Barbezat Laboratory) • Ferrous ammonium sulphate (Fe^2+) • Ferric ammonium sulphate (Fe^3+) • d) Products tested:
For the evaluation of unsaturated fatty hydroxy acid derivatives, the dilutions are prepared in freshly prepared culture medium for a concentration range of 0.02, 0.2, 2 and 20 ng/ml. • e) Protocol. Cell culturing.
Cells from the fibroblast line L929 were cultured in 96-well flat base microplates in 100 μl of DMEM supplemented with 10% foetal calf serum. These were incubated overnight at 37° C. in a humid atmosphere at 5% CO2. The blank plate without cells was evaluated using 6 wells.
Dilutions of the products to be tested and reference molecule were made up in culture medium without foetal calf serum then deposited in 7 wells at a rate of 100 μl per well.
Cells were then incubated for 3 hours at 37° C. in a humid atmosphere at 5% CO2.
Cells were rinsed in PBS 1X at a rate of 100 μl per well. They were then incubated for 30 minutes at 37° C. in a humid atmosphere at 5% CO2 with 50 μl of the H2DCF-DA probe at 5 μM.
After 30 minutes of contact with the probe alone, cells were incubated for 30 minutes at 37° C. in a humid atmosphere at 5% CO2 with the addition of 25 μl of H2O2 at 800 μM and 25 μl of ferrous iron and ferric iron solution at 8 mM in order to obtain final concentrations of 200 μM of H2O2 and 2 mM of ferrous iron and ferric iron.
Cells were then rinsed with PBS 1X at a rate of 100 μl per well then incubated for 30 minutes at 37° C. in a humid atmosphere at 5% CO2 with 100 μl of PBS 1X.
This incubation for 1 h 30 minutes at 37° C. allows intracellular esterases to deacetylate the probe into H2DCF which can be oxidized by the intracellular AOSs into DCF: a fluorescent compound whose formation is proportional to the quantity of intracellular AOSs.
The intensity of fluorescence is read on a cytofluorimeter at λexcitation=485 nm and λemission=530 nm. This reflects the amount of intracellular AOS produced.
The ratio below makes it possible to calculate the % protection against the production of intracellular AOSs for each product concentration tested (because the intensity of fluorescence or IF reflects the release of intracellular AOSs)
• Pre-incubation: 3 h • Number of tests=3 for all compounds. • Number of tests=18 for vit. E

[2] = test system: membrane lipids, fibroblast line L929; test: TBARS test, lipid peroxidation after H2O2/Fe2+/Fe3+; assay type: cell-based, murin; details: 0.02 ng/ml, pretreated 16 hours
Excerpt: In order to evaluate membrane changes, we measured lipid peroxidation by in vitro assay of complexes between the products of lipid oxidation and thiobarbituric acid. These complexes are called TBARS (thiobarbituric acid reactive substances) and give the test its name: TBARS Test.
In order to mimic chemical oxidative stress, we treated a fibroblast line (L929) with a complex consisting of hydrogen peroxide (H2O2) and iron (Fe^2+/Fe^3+) thus reconstituting the Fenton reaction which is the source of oxygenated free radicals and particularly the hydroxyl radical (OH°) (D. A Vessey et al. 1992): H2O2+Fe^2+→OH°+OH^−+Fe^3+
The products were evaluated on a murin fibroblast line L929. Cells were pretreated with different concentrations of the product for 16 hours and were then stimulated with the H2O2/Fe^2+/Fe^3+ complex (200 μM−1 mM) for 1 hour. • Stock solutions: 100 mg/ml ethanol, 4° C. • Final solutions: 0.02 ng/ml.
Peroxidation of membrane lipids was analysed by measuring TBARS (Protocol ref. PLN°2, according to Morliere et al, 1991).
[…]. TBARS assays are therefore expressed in pmole/μg of protein. Proteins and TBARS are assayed in the intracellular medium.
Using the TBARS calculation in pmole/μg protein, we calculated the protective efficacy of various products against the oxidation of lipid membranes.
Four separate experiments were carried out. Several compounds were evaluated in the course of these experiments (the test only allows 10 molecules to be evaluated at one time). The compounds were evaluated several times and were chosen as a function of the results obtained in another test which also measured anti-radical activity (assay test for activated oxygen species).
The model used in this experiment (Fenton reaction) triggers considerable lipid peroxidation of the L929 fibroblasts. This massive release of the hydroxyl radical OH° thus generates oxidative stress in the cells, particularly in the membranes. However, in this type of oxidative reaction, the products resulting from lipid peroxidation are internalized in the cells and TBARS are therefore assayed in the intracellular medium.

transglutaminase 1 (TG1) = test: keratinocyte differentiation, real-time RT-PCR of transglutaminase 1 transcripts; assay type: cell-based, human; details: NHK, 48 hours
Procedure: (§1) Normal human keratinocytes (NHK) proliferate and differentiate in vitro, forming stratified layers which mimic the basal organisation of the skin. Extracellular calcium concentrations in excess of 0.1 mM initiate a cascade of genome and non-genome events which take the keratinocytes from a proliferative phase towards a differentiation phase. Keratinocyte differentiation can then be evaluated by studying the expression of several markers such as keratins 1 and 10, transglutaminase 1, desaturase DES2, involucrine, FATP4 and ABCG1 transporters. We therefore evaluated the effect of certain hydroxyalcene carboxylic acids in an in vitro culture model.
(§2) Normal human keratinocytes are isolated from skin explants. They are cultured in KSFM medium (Gibco) with a low calcium content (0.1 mM) containing 25 μg/ml of BPE (bovine pituitary extract) and […] of EGF (epithelium growth factor). 24 hours after culturing, differentiation is triggered by the addition of calcium (final concentration 1.2 mM). The active ingredients are added or not at the same time as calcium at concentrations of 100 and 1 μg/ml in order to determine whether or not they have a potentialising effect on differentiation. Cells were then analysed 48 hours after the addition of calcium and these products.
(§3) Total RNA was extracted under cold conditions from keratinocytes.
(§4) After reverse transcription of mRNA into cDNA, PCRs were made up in 96 well plates (iCycler quantitative PCR apparatus, BioRad). Expression of transcripts of transglutaminase, desaturase (DES2), ABCG1 and FATP4 were standardized with respect to the expression of reference genes (GAPDH, UBC, HPRT).

desaturase DES2 = test: keratinocyte differentiation, real-time RT-PCR of DES2 transcripts; assay type: cell-based, human; details: NHK, 48 hours
Procedure: as §1, §2, §3, §4

ABCG1 = test: keratinocyte differentiation, real-time RT-PCR of ABCG1 transcripts; assay type: cell-based, human; details: NHK, 48 hours
Procedure: as §1, §2, §3, §4

FATP4 = test: keratinocyte differentiation, real-time RT-PCR of FATP4 transcripts; assay type: cell-based, human; details: NHK, 48 hours
Procedure: as §1, §2, §3, §4

Interleukin 8 = test: release of Interleukin 8 by keratinocytes NHK stimulated with PMA + calcium ionophore A23187 (ELISA); assay type: cell-based, human; details: 3 μg/ml, keratinocytes, PMA + A23187 6 hours
Procedure: In this study, carried out using 96 well plates, we evaluated the activity of hydroxyl alkine acids on the production of Interleukin 8 produced in the keratinocytes by phorbol ester PMA and calcium ionophore A23187.
A suspension of keratinocytes in supplemented KSFM was divided between 96 well plates (3.10^4 cells/wells) and incubated for 16 hours at 37° C. under an atmosphere of 5% CO2. The keratinocytes were then rinsed with PBS in order to eliminate non adhering cells then exposed to the products to be tested included in non supplemented KSFM (which could interfere with the assay).
The concentration tested in culture was 3 μg/ml. This was retained after a preliminary test to evaluate cytotoxicity (neutral red) and is not cytotoxic.
3 wells were used for each treatment. Cells were preincubated for 60 minutes with the products to be tested then stimulated, in parallel to negative controls without stimulant: Phorbol Myristate Acetate (PMA) 1 μm+Calcium ionophore (A23187) 0.1 μm.
Incubation for 6 hours at 37° C. in a humid air atmosphere containing 5% CO2.
The culture medium for each of the wells was recovered, centrifuged at 3000 rpm and stored at −80° C.
Cytokine assay: IL8 was assayed using the ELISA kit immunoenzyme method (immunotech).
The results are given as percentage activity/stimulated control.
The compounds according to the invention were evaluated in terms of anti-inflammatory activity on the release of Interleukin 8 by human keratinocytes NHK stimulated by phorbol ester PMA+calcium ionophore A23187.

PAR-2 receptors = target: T1, PAR-2 receptors (Homo sapiens, UniProt P55085); test: calcium flux induced by trypsin stimulation of PAR-2 receptors in HaCaT keratinocytes (Fluo-4/AM); assay type: cell-based; details: trypsin 10 nM
T1 construct: PAR-2 receptors for trypsin present in human keratinocytes from the HaCaT line; endogenous in cells; host or cells: HaCaT human keratinocytes
T1 sequence (P55085 26-397): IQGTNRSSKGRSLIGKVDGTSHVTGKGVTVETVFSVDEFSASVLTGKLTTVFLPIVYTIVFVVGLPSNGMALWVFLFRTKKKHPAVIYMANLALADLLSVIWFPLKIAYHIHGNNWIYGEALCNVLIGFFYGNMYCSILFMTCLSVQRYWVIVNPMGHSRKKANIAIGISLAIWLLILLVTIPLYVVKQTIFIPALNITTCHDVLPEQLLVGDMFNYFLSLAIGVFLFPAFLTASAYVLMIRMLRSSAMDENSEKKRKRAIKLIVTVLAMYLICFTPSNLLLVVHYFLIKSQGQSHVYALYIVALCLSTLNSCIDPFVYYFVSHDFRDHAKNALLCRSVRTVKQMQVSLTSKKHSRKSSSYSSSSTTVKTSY
Excerpt: We therefore considered evaluating anti-PAR-2 activity of hydroxyl acid derivatives of formula I on the influx of intracellular calcium induced after specific stimulation by PAR-2 receptors for trypsin present in human keratinocytes from the HaCaT line.
This technique is based on the use of an esterified fluorescent probe by an AM group which facilitates its penetration by passive diffusion into the cell. The probe used is Fluo-4/AM. Only the de-esterified form bound to the calcium ion is excitable in fluorescence (at 485 nm) and emits at 535 nm.
In vitro, at the cell level, specific stimulation of the PAR-2 receptors by trypsin leads to mobilisation of intra and extracellular calcium detected with the aid of the fluorescent probe.

Compound	% membrane lipid protection, Mean [2]	Induction Factor vs Control (CaCl2 1.2 mM) TG1 (transglutaminase 1 (TG1); 1 μg/ml)	Induction Factor vs Control (CaCl2 1.2 mM) DES2 (desaturase DES2; 1 μg/ml)	Induction Factor vs Control (CaCl2 1.2 mM) ABCG1 (ABCG1; 1 μg/ml)	Induction Factor vs Control (CaCl2 1.2 mM) FATP4 (FATP4; 1 μg/ml)	Percentage inhibition of the intracellular production of AOS ([1]; 0.02 ng/ml)	Percentage inhibition of the intracellular production of AOS ([1]; 0.2 ng/ml)	Percentage inhibition of the intracellular production of AOS ([1]; 2 ng/ml)	Percentage inhibition of the intracellular production of AOS ([1]; 20 ng/ml)	further results
O=C(O)C(F)=CCCCCCCCO [n=6, R=H, Rn=H, R1=F, 10-hydroxy-dec-2-fluoro-2 enoic acid]	40.65%	1.2	1.3	1.3	1.0	–	–	–	–	inhibition at 20 pg/mL ([1]; Mus musculus, 0.02 ng/ml, read-out: Percentage inhibition of the intracellular production of AOS): 15%; inhibition at 0.0002 µg/mL ([1]; Mus musculus, 0.2 ng/ml, read-out: Percentage inhibition of the intracellular production of AOS): 4%; inhibition at 0.002 µg/mL ([1]; Mus musculus, 2 ng/ml, read-out: Percentage inhibition of the intracellular production of AOS): 5%; inhibition at 0.02 µg/mL ([1]; Mus musculus, 20 ng/ml, read-out: Percentage inhibition of the intracellular production of AOS): -9%; Induction Factor vs Control (CaCl2 1.2 mM) TG1 (transglutaminase 1 (TG1); 100 μg/ml): 7.8; Induction Factor vs Control (CaCl2 1.2 mM) DES2 (desaturase DES2; 100 μg/ml): 10.3; Induction Factor vs Control (CaCl2 1.2 mM) ABCG1 (ABCG1; 100 μg/ml): 6.3; Induction Factor vs Control (CaCl2 1.2 mM) FATP4 (FATP4; 100 μg/ml): 1.9
O=C(O)C(F)=CCCCCCCCCCCCCCCCO (mixture of isomers) [n=14, R=H, Rn=H, R1=F]	35.30%	1.7	2.8	4.0	1.0	6%	−17%	−26%	−42%	–
O=C(O)/C=C/CCCCCCO [n=5, R=H, Rn=H, R1=H, 9-hydroxy-nona-2t-enoic acid]	–	1.5	1.8	2.7	1.0	56%	47%	46%	36%	–
O=C(O)/C=C/CCCCCCCCCCCCCCCO [n=14, R=H, Rn=H, R1=H, 18-hydroxy-octadec-2t-enoic acid]	–	–	–	–	–	–	–	–	–	% inhibition of IL-8 release (Interleukin 8): Non-active; % inhibition (PAR-2 receptors; 10 μg/ml): −10%; % stimulation (PAR-2 receptors; 10 μg/ml): 14.68%; % inhibition (PAR-2 receptors; 30 μg/ml): 8%; % stimulation (PAR-2 receptors; 30 μg/ml): 12.90%; % inhibition (PAR-2 receptors; 100 μg/ml): 23%; % stimulation (PAR-2 receptors; 100 μg/ml): 11.37%
